These are literature values, as cited in patent US9561285B2, “Carrier-linked carbamate prodrug linkers” (Ascendis Pharma AS, priority 2010, dated 2017).

Molecules are shown by their SMILES.

The conditions of this data set: buffer, pH 7.

Consider `O=C(Nc1ccccc1)Oc1ccc([N+](=O)[O-])cc1` [p-nitrophenyl-O—CO—NH-phenyl], for which the half-life of hydrolysis was 26 s.
